Data published in BindingDB's records for doi:10.1080/14756360600889708 (University of Karachi, 2006).

Key:
Acetylcholinesterase = Acetylcholinesterase (Tetronarce californica, UniProt P04058); assay: Enzyme Inhibition Assay; settings: 30 °C
Description: (§1) AChE and BChE inhibitory activities were measured in vitro by a modified spectrophotometric method. all the inhibition studies were performed using a Spectra Max microplate spectrophotometer from Molecular Devices, CA, USA.

[1] = target: Carboxylic ester hydrolase (Equus caballus, UniProt Q9N1N9); assay: Enzyme Inhibition Assay; settings: 30 °C
Carboxylic ester hydrolase, sequence (Q9N1N9 whole entry): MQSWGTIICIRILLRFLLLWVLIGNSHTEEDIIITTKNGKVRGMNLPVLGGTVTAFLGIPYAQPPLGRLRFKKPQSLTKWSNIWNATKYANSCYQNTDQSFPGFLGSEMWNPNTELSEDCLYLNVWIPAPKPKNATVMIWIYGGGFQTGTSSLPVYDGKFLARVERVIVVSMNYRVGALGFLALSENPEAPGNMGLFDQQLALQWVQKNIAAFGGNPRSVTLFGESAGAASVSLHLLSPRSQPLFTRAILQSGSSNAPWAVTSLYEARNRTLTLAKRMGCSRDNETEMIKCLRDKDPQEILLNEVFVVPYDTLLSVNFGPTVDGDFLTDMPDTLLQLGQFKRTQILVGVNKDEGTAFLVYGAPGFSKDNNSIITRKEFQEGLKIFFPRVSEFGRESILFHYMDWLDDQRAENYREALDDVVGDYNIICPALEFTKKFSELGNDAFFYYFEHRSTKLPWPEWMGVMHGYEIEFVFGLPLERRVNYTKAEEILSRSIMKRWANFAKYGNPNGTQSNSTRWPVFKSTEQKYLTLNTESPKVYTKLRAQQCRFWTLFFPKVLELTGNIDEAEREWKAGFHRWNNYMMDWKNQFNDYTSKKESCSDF
Description: as §1

Acetylcholinesterase, sequence (P04058 whole entry): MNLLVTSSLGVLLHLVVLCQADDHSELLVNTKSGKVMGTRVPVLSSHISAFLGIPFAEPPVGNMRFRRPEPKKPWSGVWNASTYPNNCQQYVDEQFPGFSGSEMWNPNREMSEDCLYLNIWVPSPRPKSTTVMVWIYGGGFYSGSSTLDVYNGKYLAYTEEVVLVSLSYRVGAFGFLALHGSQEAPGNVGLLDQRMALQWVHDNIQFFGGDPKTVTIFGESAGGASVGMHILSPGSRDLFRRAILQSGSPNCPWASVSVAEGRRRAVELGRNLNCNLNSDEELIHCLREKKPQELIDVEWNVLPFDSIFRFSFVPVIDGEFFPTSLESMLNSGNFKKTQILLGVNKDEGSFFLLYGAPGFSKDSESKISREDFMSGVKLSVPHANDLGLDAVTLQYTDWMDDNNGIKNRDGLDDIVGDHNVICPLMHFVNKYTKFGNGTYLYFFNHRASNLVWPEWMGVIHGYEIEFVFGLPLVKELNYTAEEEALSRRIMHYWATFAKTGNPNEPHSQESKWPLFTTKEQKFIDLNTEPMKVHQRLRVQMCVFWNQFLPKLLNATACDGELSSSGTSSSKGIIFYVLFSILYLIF

## COC(C)(C)[C@H]1Cc2c(n(C)c3ccccc3c2=O)O1 [Methyl isoplatydesmine, 4]
Acetylcholinesterase
  Ki: 30 µM
[1]
  Ki: 19 µM

## Cn1c2c(c(=O)c3ccccc31)C[C@@H](O)C(C)(C)O2 [Ribalinine, 3]
Acetylcholinesterase
  Ki: 30 µM
[1]
  Ki: 70 µM

## COc1ccc2c3c1O[C@H]1C[C@@H](O)C=C[C@@]31CCN(C)C2 [galantamine]
[1]
  Ki: 32 µM
